Legend:
[1] = system: P388 cells; experiment: Inhibition of RNA synthesis (2-[14C]uridine incorporation) in P388 cells; assay type: cell-based, murine; settings: for IC50: 50% reduction in 1 hr of 2-[14C]uridine incorporation, read-out: IC50 RNA synth; for IC50 DNA/IC50 RNA: ratio
Protocol: (§1) Experiments for inhibition of nucleic acid synthesis in tumor cells in vitro were carried out with P388 tumor cells, details of which were reported by Sengupta et al, J. Med. Chem., 18, 1175 (1975). […] AMD-OZLs inhibit either process with equal activity and with the potency of its metabolite 7-hydroxy-AMD.
^b IC50 (RNA) = concentration of inhibitor in μM required to
cause 50% reduction (in 1 hr) in 2[^14 C]uridine incorporation into
acid precipitable material with use of P388 cells.

[2] = system: P388/S; experiment: In vivo activity against P388/S (adriamycin sensitive) leukemia, Table VII; design: species or system BDF1 mice; settings: for P388/S % ILS / P388/S tumor-free survivors/total on day 60: at optimal dose; for P388/S optimal dose: ip, days 1, 5 and 9
Protocol: (§2) ^a Male BDF1 mice inoculated ip: 10^6 cells inoculum, day 0.
(§3) Drugs administered in 10% dimethyl sulfoxidesaline on days 1, 5 and 9. %
(§4) ILS = percent increase in life span. Fractions in parentheses = tumorfree
(§5) survivors/total on day 60. P388/S (adriamycin sensitive) and P388/ADR
(§6) (adriamycin resistant) tumors were evaluated in the same experiment with […]

[3] = system: P388 cells; experiment: Inhibition of DNA synthesis (methyl-[3H]thymidine incorporation) in P388 cells; assay type: cell-based, murine; settings: 50% reduction in 1 hr of methyl-[3H]thymidine incorporation, read-out: IC50 DNA synth
Protocol: as §1
^c IC50 (DNA) = concentration of inhibitor in μM required to
cause 50% reduction (in 1 hr) in methyl[^3 H]thymidine incorporation
into acid precipitable material with use of P388 cells.

[4] = system: P388/ADR; experiment: In vivo activity against P388/adriamycin-resistant leukemia; design: species or system BDF1 mice; settings: for P388/ADR optimal dose: ip, days 1, 5 and 9
Protocol: as §2, §3, §4, §5, §6

[5] = system: B16 melanoma; experiment: In vivo antitumor activity against B16 melanoma; design: species or system BDF1 mice; settings: for % ILS / surv (survivors on day 65/total injected) / MST (range): at optimal dose; for MST (range): control 29 (20-48); for optimal dose: ip, days 1, 5, 9
Protocol: AMD-OZL analogues 9a and 10a were about as active as AMD and 7-hydroxy-AMD. The potencies of these analogues are reduced in comparison to that of AMD; their optimal doses were higher than that of AMD.
^a 0.2 mL of 1:5 (weight/volume) brei of B16 melanoma implanted
ip on day 0 in groups of nine BDF1 mice. Drugs administered ip.
^b MST (range) median survival time in days (range of individual
^c % ILS (surv), percent increase in lifespan (survivors on day

[6] = system: P388 Leukemia; experiment: Minimum effective dose and therapeutic index vs. P388 leukemia; assay type: in vivo; settings: dose giving 45% increase in life span in P388 tumor bearing mice; ip days 1, 5 and 9
Protocol: (§7) These analogues were also tested in tumor-free BDF1 male mice for determination of their MTD values (Table VIII). The animals (18-22 g) were given a broad range of doses of drugs in 5% dimethyl sulfoxide-saline on days 1, 5 and 9. Drugs were administered ip and the maximum tolerated doses of agents which caused death in only 10% of the tested animals in 21 days (i.e., LD10) were recorded as MTD. […] However, the MED values of 7-hydroxy-AMD and its precursor AMD-OZL 10a are high and are seven to tenfold of the MED values of 4a and 8a. On the basis of these MED values, the therapeutic indices of 8a and 4a are 70 and 96. The therapeutic index of 2a is 13, of 10a 10, and of AMD only 4.
^a Drugs administered ip once on days 1, 5 and 9 starting 1 day after
tumor implantation. Determinations were made from analysis of plotted
^b MED (minimum effective dose) is the dose (milligram/kilogram)
providing an increase in life span of 45% over control in P388 tumor

[7] = Maximum tolerated dose (LD10) in tumor-free BDF1 male mice; assay type: in vivo; settings: lethal dose for 10% normal BDF1 male mice, 21 days (LD10); ip days 1, 5 and 9
Protocol: as §7
^c MTD (maximum tolerated dose) is the lethal dose
(milligram/kilogram) for 10% normal BDF1 male mice (18-22 g); animal
calculated from a plot of logdose vs. percent mortality.

[8] = system: CCRF-CEM human lymphoblastic leukemic cells; experiment: In vitro cytotoxicity against CCRF-CEM cells; assay type: cell-based; settings: 48 hr
Protocol: ^a Human lymphoblastic leukemic cells.
The analogues were tested for their cytotoxicity against tumor cells (time, 48 hr). […] This may be associated with the initial microsomal transformation of the "reverse" analogues to "symmetrical" analogue and/or other alternate bioactive forms (e.g., free-radicals, O2^-), followed by deactivation via formation of conjugates and facile elimination of these from the host. The "reverse" analogues show reduced toxicity in vivo and also the tritiated "reverse" 7a is metabolized in vitro.

[9] = system: P388 lymphocytic leukemia; experiment: In vivo antitumor activity against P388 leukemia; design: species or system BDF1 mice; settings: for surv (surviving mice/total mice at 60 days) / % ILS / MST (range): P388, at optimal dose; for % ILS: 100(T/C - 1); for MST (range): control 11.0 (9-12); for optimal dose: P388, ip, days 1, 5 and 9, optimal nontoxic dose
Protocol: The analogues were tested for their antitumor activities in P388 lymphocytic leukemia in male BDF1 mice. The tumor was implanted intraperitoneally (ip) with 10^6 cells. The drugs were also administered ip once daily on days 1, 5 and 9, beginning 1 day after tumor transplantation. Analogues were tested over a range of doses, but only the optimal nontoxic doses are listed.
^a 10^6 P388 cells implanted ip on day 0 into groups of eight
BDF1 male mice. Drugs administered ip. MST (range), median survival
time in days (range of individual animal deaths); % ILS, percent increase
in life span, calculated 100(T/C - 1), where T and C are median survival
times of treated and control animals; surv, number of surviving mice/tota

[10] = system: calf-thymus DNA; experiment: Equilibrium binding to calf-thymus DNA, Scatchard plots of binding isotherms (spectrophotometric); settings: Scatchard plot
Protocol: (§8) The "reverse" analogues bind to calf-thymus DNA, but the spectrophotometrically determined binding (Kapp and Bapp, equilibrium binding values) constants are found to be lower than those of AMD. The binding is also measured by thermal denaturation of DNA.
(§9) The equilibrium binding constants (Kapp and Bapp) of the "reverse" methyl 7a and the "reverse" phenyl 8a were determined from the Scatchard plots of binding isotherms; the Scatchard plots are produced according to the previously described methods using calf-thymus DNA [Sengupta et al, Biochem. Biophys. Acta 521, 89 (1978)]. The Kapp values are 2.5×10^6 and 2.3×10^6 M^-1, respectively; corresponding Bapp values are 0.038 and 0.036. […] But, these "reverse" analogues associate with DNA less strongly; their frequency of binding is also lower compared to that of AMD. However, the "reverse" analogues fail to cause any measurable change in the ratio of the intrinsic viscosity (γ) of DNA with the increasing ratios of [ligand]/DNA base pair (r), even when low molecular weight DNAs (0.5×10^5 to 1.0×10^5) were employed.

[11] = system: DNA; experiment: Thermal denaturation of DNA (ΔTm); assay type: binding
Protocol: as §8, §9
Melting points are determined on a Thomas-Hoover melting point apparatus at a heating rate of 2° C./min. Thin-layer chromatography was performed on silica gel plates (Brinkmann Instrument Inc.). Solvent systems were (A) EtOAc-acetone (4:1), (B) CHCl3 -MeOH (9:1) and (C) Cifferri, the organic phase of the mixture EtOAc-MeOH-H2 O (20:1:20). High-performance liquid chromatography was carried out on a Varian Model 5020 gradient liquid chromatograph equipped with a CD-111L chromatography data system and fitted with a Varian reversed-phase C18 column with the following solvent systems: I, CH3 CN-5 mM NH4 OAc buffer, pH 6.4 (68:32 isocratic), flow rate 1.5 mL/min; II, 65-95% water-methanol gradient for 70 min, 1 mL/min; III, 10-90% H2 O-MeOH gradient for 120 min, 1 mL/min, with UV-visible variable- and fixed-wavelength dual detectors at 254, 440, 470 and 520 nm. IR spectra were obtained on a Perkin-Elmer Model 237 Infra Cord with KBr micropellets or in chloroform solutions. UV-visible spectra were obtained on a Gilford 250 spectrophorometer, which, with the addition of a base-line reference compensator (Analog Multiplexer 5053) and thermoprogrammer, auto four cell programmer and thermoelectric cell holder 2577, were used to obtain thermal denaturation curves. Specific rotation values were determined in chloroform solutions with a Cary 60 spectropolarimeter. NMR spectra were obtained in a JEOL FQ-90 MHz spectrometer equipped with Fourier transform. EPR spectra analyses were recorded in a Varian E-9 EPR spectrometer. All elemental analyses were within ±0.4%.

| Structure (SMILES) | IC50 [1] | IC50 DNA/IC50 RNA [1] | P388/S % ILS [2] | P388/S tumor-free survivors/total on day 60 [2] | P388/S optimal dose [2] | IC50 [3] | P388/ADR % ILS ([4]; at optimal dose) | P388/ADR optimal dose [4] | % ILS [5] | surv (survivors on day 65/total injected) [5] | MST (range) [5] | optimal dose [5] | MED (minimum effective dose) [6] | MTD (maximum tolerated dose) [7] | in vitro (CCRF-CEM) ID50 [8] | surv (surviving mice/total mice at 60 days) [9] | % ILS [9] | MST (range) [9] | optimal dose [9] | other results |
| --- | --- | --- | --- | --- | --- | --- | --- | --- | --- | --- | --- | --- | --- | --- | --- | --- | --- | --- | --- | --- |
| Cc1c2oc3c(C)c4oc(-c5ccccc5)nc4c(C(=O)NC4C(=O)NC(C(C)C)C(=O)N5CCCC5C(=O)N(C)CC(=O)N(C)C(C(C)C)C(=O)OC4C)c3nc-2c(C(=O)NC2C(=O)NC(C(C)C)C(=O)N3CCCC3C(=O)N(C)CC(=O)N(C)C(C(C)C)C(=O)OC2C)cc1=O (stereo not drawn) [10a, 2-Phenyl-AMD--OZL] | 3.2 µM | 1.78 | 186% | 2/8 | 1.0 mg/kg | 5.7 µM | 88% | 1.2 mg/kg | 55% | 2/9 | 45 (33-56) days | 900 μg/kg per inj | 0.20 milligram/kilogram | 2.0 milligram/kilogram | 0.5 µM | 2/8 | 186% | 31.5 (29-57) days | 1000.0 μg/kg per inj |  |
| Cc1c2oc3c(C)c4oc(-c5ccccc5)nc4c(C(=O)NC4C(=O)NC(C(C)C)C(=O)N5CCCC5C(=O)N(C)CC(=O)N(C)C(C(C)C)C(=O)OC4C)c3nc-2c(C(=O)NC2C(=O)NC(C(C)C)C(=O)N3CCCC3C(=O)N(C)CC(=O)N(C)C(C(C)C)C(=O)OC2C)c(N)c1=O [8a, 7-Amino-9,11-dimethyl-2-phenyl-8H-8-oxooxazolo [4,5-b]phenoxazine 4,6-bis[carbonyl-L-threonyl-D-valyl-L-prolylsarcosyl-L-N-methylvaline(threonine hydroxyl)] lactone] | 0.07 µM | 11.43 | 382% | 4/8 | 0.35 mg/kg | 0.8 µM | 132% | 0.6 mg/kg | 103% | 5/9 | 59 (53-59) days | 300 μg/kg per inj | 0.03 milligram/kilogram | 1.80 milligram/kilogram | 0.03 µM | 4/8 | 382% | 52.0 (49-58) days | 375.0 μg/kg per inj | Bapp (equilibrium binding value) [10]: 0.036; Kapp (equilibrium binding constant) [10]: 2.3e+06 M⁻¹; ΔTm (DNA melting temperature) [11]: 6.7±0.2 °C; P388/ADR tumor-free survivors/total on day 60 ([4]; at optimal dose): 1/8 |

Source: US4680382A, “Analogues of actinomycin D” (priority 1986, dated 1987)
